Tests used:
[1] = system: MN4 (DNA, aptamer) GGCGACAAGGAAAATCCTTCAACGAAGTGGGTCGCC; assay: quinine fluorescence quenching; conditions: PBS, 5 mM MgCl2; pH 7.4, 20 °C; 0.1 μM quinine; three-parameter fit; per site
[2] = system: A (boxcar A) (DNA, aptamer) CGTCTAATCTAATCAGGCGACAAGGAAAATCCTTCAACGAAGTGGGTCGCCCTAACTCTCTATCCG; assay: quinine fluorescence quenching; conditions: PBS, 5 mM MgCl2; pH 7.4, 20 °C; 0.1 μM quinine; three-parameter fit; per site

KD [1]: 280 ± 60 nM
KD [2]: 380 ± 130 nM
Compound: C=C[C@H]1CN2CC[C@H]1C[C@H]2[C@H](O)c1ccnc2ccc(OC)cc12

Source: paper PMC9969250 (2023)
